From patent US6962907B2, “Neurologically-active compounds” (The University of Sydney, priority 2001, dated 2005)
“Also recorded” adds a separate entry of the source. Like-named read-outs stand apart in the source and are kept apart here.

Experiments:
[1] = molecular target: T1, GABAB (1a,2) receptor (Homo sapiens, UniProt Q9UBS5); experiment: Two-electrode voltage clamp at GABAB (1a,2) receptors co-expressed with GIRK1 and GIRK4 in Xenopus oocytes; type: cell-based; details: for effect as agonist or antagonist: 300 μM compound; for current response to compound in the presence of GABA: 300 μM compound + 3 μM GABA; for current response to compound in the presence of GABA / response to compound alone: FIG. 10(b); for response to compound alone: 300 μM compound alone
T1 construct: expressed in transfected cells; host or cells: Xenopus laevis oocytes injected with mRNA
T1 sequence (Q9UBS5 15-961 limits assumed): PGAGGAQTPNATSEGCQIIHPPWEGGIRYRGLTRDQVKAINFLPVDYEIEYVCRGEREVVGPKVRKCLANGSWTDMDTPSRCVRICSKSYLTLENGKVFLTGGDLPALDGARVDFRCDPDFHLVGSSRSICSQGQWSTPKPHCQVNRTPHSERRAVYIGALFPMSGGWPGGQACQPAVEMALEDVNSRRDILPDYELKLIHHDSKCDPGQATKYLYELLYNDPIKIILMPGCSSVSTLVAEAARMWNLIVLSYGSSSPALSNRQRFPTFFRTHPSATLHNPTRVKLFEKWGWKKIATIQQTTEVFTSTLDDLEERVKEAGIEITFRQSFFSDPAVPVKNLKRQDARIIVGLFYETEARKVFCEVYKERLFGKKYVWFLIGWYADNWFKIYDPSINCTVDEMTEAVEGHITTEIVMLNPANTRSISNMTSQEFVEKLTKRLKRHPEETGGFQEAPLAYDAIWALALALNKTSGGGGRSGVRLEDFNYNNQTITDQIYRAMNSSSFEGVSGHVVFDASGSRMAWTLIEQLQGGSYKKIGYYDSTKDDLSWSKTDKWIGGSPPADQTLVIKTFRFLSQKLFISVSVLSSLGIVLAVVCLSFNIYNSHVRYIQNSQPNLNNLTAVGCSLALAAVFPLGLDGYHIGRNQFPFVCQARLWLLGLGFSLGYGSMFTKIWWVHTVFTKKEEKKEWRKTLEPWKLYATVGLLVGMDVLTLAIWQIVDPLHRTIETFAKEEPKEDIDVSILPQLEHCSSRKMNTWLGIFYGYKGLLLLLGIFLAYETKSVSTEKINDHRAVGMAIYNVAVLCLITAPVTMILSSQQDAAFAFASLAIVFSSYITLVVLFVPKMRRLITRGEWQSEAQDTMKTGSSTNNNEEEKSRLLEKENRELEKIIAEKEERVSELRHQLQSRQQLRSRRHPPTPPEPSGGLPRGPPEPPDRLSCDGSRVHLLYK
T1 sequence (O75899 42-941 partner): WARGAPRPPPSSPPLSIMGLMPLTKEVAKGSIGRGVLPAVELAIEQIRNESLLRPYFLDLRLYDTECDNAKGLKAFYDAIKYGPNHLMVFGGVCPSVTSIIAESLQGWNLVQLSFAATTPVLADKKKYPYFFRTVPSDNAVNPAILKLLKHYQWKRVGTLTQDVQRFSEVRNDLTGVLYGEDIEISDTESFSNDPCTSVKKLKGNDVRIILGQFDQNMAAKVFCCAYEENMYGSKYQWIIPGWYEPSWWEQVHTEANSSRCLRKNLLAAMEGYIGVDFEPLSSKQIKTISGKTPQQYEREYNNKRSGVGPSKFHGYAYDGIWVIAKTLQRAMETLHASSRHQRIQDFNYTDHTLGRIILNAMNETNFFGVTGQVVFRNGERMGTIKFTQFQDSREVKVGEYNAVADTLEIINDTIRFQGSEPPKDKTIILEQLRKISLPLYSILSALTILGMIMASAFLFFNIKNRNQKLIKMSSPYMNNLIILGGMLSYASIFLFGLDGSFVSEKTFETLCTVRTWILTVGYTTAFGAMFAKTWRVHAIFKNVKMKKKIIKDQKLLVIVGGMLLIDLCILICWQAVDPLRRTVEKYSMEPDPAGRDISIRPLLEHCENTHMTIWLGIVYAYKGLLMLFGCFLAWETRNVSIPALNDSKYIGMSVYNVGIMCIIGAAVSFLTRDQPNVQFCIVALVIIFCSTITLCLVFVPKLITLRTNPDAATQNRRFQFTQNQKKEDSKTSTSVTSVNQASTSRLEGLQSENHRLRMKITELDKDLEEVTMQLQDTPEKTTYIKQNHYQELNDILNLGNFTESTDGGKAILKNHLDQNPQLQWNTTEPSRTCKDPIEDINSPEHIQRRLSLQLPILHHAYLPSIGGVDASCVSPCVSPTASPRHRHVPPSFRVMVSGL

[2] = molecular target: GABAA (α2β2γ2s) receptor (Homo sapiens, UniProt P47869+P47870); experiment: Two-electrode voltage clamp at GABAA (α2β2γ2s) receptors expressed in Xenopus oocytes; details: for effect as agonist or antagonist: 1 mM compound; for current response to compound in the presence of GABA: 1 mM compound + 3 μM GABA; for current response to compound in the presence of GABA / response to compound alone / current response to GABA alone: FIG. 9; for response to compound alone: 1 mM compound alone; for current response to GABA alone: oocyte clamped at −60 mV
Sequence of GABAA (α2β2γ2s) receptor (P47869 29-451): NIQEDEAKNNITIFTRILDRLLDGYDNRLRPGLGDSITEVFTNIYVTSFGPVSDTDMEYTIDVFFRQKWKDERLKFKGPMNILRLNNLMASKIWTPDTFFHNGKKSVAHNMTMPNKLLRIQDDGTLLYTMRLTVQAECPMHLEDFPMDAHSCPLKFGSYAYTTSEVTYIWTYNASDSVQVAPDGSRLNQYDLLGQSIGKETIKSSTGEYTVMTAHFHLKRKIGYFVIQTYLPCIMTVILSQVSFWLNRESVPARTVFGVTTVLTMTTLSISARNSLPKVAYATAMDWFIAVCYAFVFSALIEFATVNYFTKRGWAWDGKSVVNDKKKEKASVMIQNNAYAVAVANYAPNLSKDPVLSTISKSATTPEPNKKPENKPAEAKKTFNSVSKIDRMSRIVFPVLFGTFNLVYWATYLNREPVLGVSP
Sequence of GABAA (α2β2γ2s) receptor (P47870 25-512 limits assumed): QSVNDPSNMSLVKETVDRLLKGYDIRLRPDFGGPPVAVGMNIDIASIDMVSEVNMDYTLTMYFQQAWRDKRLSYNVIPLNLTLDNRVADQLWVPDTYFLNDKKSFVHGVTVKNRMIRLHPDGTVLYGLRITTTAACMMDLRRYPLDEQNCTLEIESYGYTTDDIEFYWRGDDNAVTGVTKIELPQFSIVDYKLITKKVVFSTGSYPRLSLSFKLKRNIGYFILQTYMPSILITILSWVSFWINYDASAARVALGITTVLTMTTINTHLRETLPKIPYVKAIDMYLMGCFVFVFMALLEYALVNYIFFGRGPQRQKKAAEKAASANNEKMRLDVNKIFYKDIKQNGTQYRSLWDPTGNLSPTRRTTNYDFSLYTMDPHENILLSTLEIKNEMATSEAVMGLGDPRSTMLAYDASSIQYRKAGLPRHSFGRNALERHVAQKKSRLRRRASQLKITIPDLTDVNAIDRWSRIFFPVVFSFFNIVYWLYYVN
Sequence of GABAA (α2β2γ2s) receptor (P18507 40-467 isoform P18507-1 partner limits assumed): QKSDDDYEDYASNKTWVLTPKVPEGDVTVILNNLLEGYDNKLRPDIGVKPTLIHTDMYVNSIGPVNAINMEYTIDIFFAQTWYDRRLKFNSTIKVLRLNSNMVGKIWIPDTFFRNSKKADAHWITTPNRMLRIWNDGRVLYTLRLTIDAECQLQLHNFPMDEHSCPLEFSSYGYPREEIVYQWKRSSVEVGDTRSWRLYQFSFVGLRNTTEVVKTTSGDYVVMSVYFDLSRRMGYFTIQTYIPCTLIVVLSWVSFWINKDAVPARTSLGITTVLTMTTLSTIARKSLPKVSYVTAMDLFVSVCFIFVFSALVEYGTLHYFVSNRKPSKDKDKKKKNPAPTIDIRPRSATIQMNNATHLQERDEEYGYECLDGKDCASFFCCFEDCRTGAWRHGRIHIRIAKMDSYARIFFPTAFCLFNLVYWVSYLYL
Protocol: (§1) For example, ρ1 GABAC receptor subunit subcloned in ρ1 cDNA 1.1 and is linearised using the restriction enzyme Xbal . Following this, the mRNA is then prepared from the linearised ρ1 subunit using T7 polymerase. This genetic material is then injected into the Xenopus laevis oocytes and incubated for 2 to 9 days, to allow for the process of translation to occur. After this process the Xenopus laevis oocytes show expression of the receptor and ion channel assembly on the cell surface.
(§2) Female Xenopus laevis frogs were anaesthetised with tricaine (850 mg/500 mL) and a lobe of their ovaries surgically removed. […] Stage V-VI oocytes were collected and stored in Frog Ringer (ND96) wash solution (96 mM NaCI, 2 mM KCI, 1 mM MgCl2.6H20, 1.8 mM CaCl2.2H2O, 5 mM HEPES (hemi-Na salt), pH 7.5) supplemented with 2.5 mM sodium pyruvate, 0.5 mM theophylline, and 50 μg/mL gentamicin.
(§3) Micropipettes were prepared by the microprocessor-controlled vertical pipette puller (World Precision Instruments) and bevelled to a tip diameter of 10-20 μm. The micropipettes were filled with mineral oil to ensure the mRNA solution would be drawn up into the micropipette under negative pressure. A Nanoject injector (World Precision Instruments) was used to deliver GABAA, GABAB or GABAC mRNA (50 nL) into the cytoplasm of the Xenopus oocytes. After injection with the appropriate mRNA, the oocytes were placed in a storage solution of ND96 wash solution supplemented with 2.5 mM sodium pyruvate, 0.5 mM theophylline and gentamicin (50 μg/mL) and stored on a slow speed rotator in an 18° C. controlled temperature incubator (Contherm, Petone, NZ). The storage solution was changed daily (or twice daily) and dead or unhealthy oocytes were removed to prolong the health of the remaining cells.
(§4) Prior to recording, 100 mM stock solutions of (±)-cis- and (±)-trans-3-ACPBPA were prepared using autoclaved MilliQ water and stored at −20° C. […] At the time the experiments were to be recorded, the stock solutions were diluted with ND96 wash solution for testing on GABAA and GABAC receptors or 45 mM K^+ solution (45 mM NaCI, 45 mM KCI, 1 mM MgCl2.6H2O, 1.8 mM CaCl2.2H2O, 5 mM HEPES (hemi-Na salt), pH 7.5 at 25° C.) for testing on GABAB receptors.
(§5) After 2 to 9 days of incubation, receptor activity using two-electrode voltage clamp recordings were acquired by means of a Geneclamp 500 amplifier (Axon Instruments Inc., Foster City, Calif., USA), a MacLab 2e recorder (AD Instruments, Sydney, Australia) and Chart™ v.3.6.3 for Macintosh (AD Instruments) to digitise the current and voltage signals.
(§6) The recording microelectrodes were prepared from borosilicate glass capillaries (1.2 mm i.d.×0.94 mm o.d.; Clark Electromedical Instruments, Pangbourne, UK) using a micropipette puller (World Precision Instruments). The microelectrodes (tip resistances 0.5-1.5 MΩ) were filled with 3 M potassium chloride and a microscope was used to direct the insertion of these microelectrodes into the oocyte positioned in the cell bath. The membrane potential of the oocyte was then voltage-clamped at −60 mV.
(§7) Oocytes with an adequate level of receptor expression (with maximal currents (I)≧50 nA) were used for subsequent recording. […] Oocytes were washed for 3-4 minutes between applications of drug doses to ensure for receptor recovery.

[3] = molecular target: GABAB receptor (Homo sapiens, UniProt Q9UBS5); experiment: Two-electrode voltage clamp at GABAB receptors (subtype not stated) expressed in Xenopus oocytes; details: for effect as agonists or antagonists: 300 μM compound; for inhibition at 1000 µM: read-out: inhibition of 1 μM GABA (weak antagonist effect); for EC50: read-out: EC50 as GABAB receptor agonist
[4] = molecular target: T2, GABAB (1b,2) receptor (Homo sapiens, UniProt Q9UBS5); experiment: Two-electrode voltage clamp at GABAB (1b,2) receptors co-expressed with GIRK1 and GIRK4 in Xenopus oocytes; type: cell-based; details: for effect as agonist or antagonist: 300 μM compound; for current response to compound in the presence of GABA: 300 μM compound + 1 μM GABA; for current response to compound in the presence of GABA / response to compound alone: FIG. 10(a); for response to compound alone: 300 μM compound alone
T2 construct: expressed in transfected cells; host or cells: Xenopus laevis oocytes injected with mRNA
T2 sequence (Q9UBS5 1-844 isoform Q9UBS5-2): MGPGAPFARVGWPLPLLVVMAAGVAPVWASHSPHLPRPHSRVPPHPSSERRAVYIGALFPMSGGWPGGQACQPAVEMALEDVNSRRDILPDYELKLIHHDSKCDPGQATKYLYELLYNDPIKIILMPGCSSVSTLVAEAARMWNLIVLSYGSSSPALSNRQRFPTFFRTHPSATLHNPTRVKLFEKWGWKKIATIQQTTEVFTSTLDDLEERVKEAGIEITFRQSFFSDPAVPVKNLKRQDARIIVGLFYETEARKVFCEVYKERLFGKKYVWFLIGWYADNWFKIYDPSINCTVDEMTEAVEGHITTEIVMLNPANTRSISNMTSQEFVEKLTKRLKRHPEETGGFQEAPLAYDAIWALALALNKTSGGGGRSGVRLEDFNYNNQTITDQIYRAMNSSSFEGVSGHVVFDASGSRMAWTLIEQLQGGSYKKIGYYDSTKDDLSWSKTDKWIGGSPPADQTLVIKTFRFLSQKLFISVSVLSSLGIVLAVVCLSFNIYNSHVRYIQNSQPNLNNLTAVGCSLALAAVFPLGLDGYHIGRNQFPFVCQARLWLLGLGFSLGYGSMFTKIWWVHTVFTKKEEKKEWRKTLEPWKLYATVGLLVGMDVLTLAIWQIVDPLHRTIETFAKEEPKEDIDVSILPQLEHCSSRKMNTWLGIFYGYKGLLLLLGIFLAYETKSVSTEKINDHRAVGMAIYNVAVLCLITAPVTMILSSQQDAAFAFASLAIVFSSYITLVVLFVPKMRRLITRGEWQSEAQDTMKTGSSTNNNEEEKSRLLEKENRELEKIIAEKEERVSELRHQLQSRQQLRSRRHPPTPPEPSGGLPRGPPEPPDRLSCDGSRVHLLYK
T2 sequence (O75899 42-941 partner): as the sequence (O75899 42-941 partner) above

[5] = molecular target: GABAC (ρ2) receptor (Homo sapiens, UniProt P28476); experiment: Two-electrode voltage clamp at GABAC (ρ2) receptors expressed in Xenopus oocytes; details: for current response to compound in the presence of GABA: 100 μM compound + 1 μM GABA; for current response to compound in the presence of GABA / response to compound alone / current response to GABA alone: FIG. 11(b); for response to compound alone: 100 μM compound alone; for inhibition at 100 µM: read-out: inhibition of the GABA response
Sequence of GABAC (ρ2) receptor (P28476 21-465): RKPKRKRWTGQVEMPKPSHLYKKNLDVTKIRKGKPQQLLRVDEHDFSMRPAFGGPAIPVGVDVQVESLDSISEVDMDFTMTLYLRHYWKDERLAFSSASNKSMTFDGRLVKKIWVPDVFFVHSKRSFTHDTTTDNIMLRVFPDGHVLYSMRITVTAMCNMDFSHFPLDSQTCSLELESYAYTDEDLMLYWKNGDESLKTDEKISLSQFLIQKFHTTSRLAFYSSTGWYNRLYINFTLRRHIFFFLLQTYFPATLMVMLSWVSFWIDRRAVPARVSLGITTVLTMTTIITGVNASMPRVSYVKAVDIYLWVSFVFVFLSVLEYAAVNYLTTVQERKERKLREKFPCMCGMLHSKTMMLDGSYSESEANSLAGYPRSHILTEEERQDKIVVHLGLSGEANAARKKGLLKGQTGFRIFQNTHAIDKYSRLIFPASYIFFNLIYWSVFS
Protocol: as §1, §2, §3, §4, §5, §6, §7

[6] = molecular target: T3, GABAC (ρ3) receptor (Rattus norvegicus, UniProt P50573); experiment: Two-electrode voltage clamp at GABAC (ρ3) receptors expressed in Xenopus oocytes; details: for current response to compound in the presence of GABA: 100 μM compound + 10 μM GABA; for response to compound alone: 100 μM compound alone; for inhibition at 100 µM: read-out: inhibition of the GABA response
T3 sequence (P50573 16-464): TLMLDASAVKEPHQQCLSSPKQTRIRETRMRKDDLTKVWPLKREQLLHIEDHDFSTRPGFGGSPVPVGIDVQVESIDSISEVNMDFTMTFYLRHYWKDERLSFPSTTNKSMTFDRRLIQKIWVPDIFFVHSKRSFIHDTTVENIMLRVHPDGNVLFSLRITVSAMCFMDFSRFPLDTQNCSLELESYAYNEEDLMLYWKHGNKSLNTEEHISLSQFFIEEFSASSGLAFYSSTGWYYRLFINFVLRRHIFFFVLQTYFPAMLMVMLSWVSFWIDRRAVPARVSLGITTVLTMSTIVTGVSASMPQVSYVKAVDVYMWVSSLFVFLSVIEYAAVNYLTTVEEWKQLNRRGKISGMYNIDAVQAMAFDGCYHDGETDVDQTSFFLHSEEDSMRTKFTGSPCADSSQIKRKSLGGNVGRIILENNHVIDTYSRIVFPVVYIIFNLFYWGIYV
Protocol: as §1, §2, §3, §4, §5, §6, §7

[7] = molecular target: GABAC (ρ1) receptor (Homo sapiens, UniProt P24046); experiment: Two-electrode voltage clamp at GABAC (ρ1) receptors expressed in Xenopus oocytes; details: for current response to compound in the presence of GABA: 100 μM compound + 1 μM GABA; for current response to compound in the presence of GABA / response to compound alone / current response to GABA alone: FIG. 11(a); for response to compound alone: 100 μM compound alone; for Hill coefficient (nH) for GABA in the presence of the antagonist / I/Imax, maximal GABA response maintained in the presence of the antagonist: (±)-cis 40 μM or (±)-trans 30 μM; for I/Imax, maximal GABA response maintained in the presence of the antagonist / type of antagonism: FIG. 12; for type of antagonism: parallel shift of the GABA dose-response curves; for inhibition at 100 µM: read-out: inhibition of the GABA response
Sequence of GABAC (ρ1) receptor (P24046 22-479): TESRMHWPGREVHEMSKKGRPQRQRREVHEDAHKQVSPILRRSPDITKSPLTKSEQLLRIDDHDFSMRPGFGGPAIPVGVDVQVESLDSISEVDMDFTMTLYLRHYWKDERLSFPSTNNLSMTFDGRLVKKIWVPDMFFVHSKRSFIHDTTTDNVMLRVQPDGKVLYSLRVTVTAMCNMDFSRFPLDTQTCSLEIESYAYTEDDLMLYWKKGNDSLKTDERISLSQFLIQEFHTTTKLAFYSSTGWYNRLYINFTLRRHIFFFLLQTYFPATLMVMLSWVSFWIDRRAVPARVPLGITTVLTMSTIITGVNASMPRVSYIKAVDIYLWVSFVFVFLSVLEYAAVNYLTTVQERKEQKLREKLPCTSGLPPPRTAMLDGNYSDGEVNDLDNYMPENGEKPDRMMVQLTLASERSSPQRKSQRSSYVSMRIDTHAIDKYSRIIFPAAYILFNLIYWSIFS
Protocol: as §1, §2, §3, §4, §5, §6, §7

[8] = molecular target: T4, GABAC receptor (Homo sapiens, UniProt P24046); experiment: Activity of ACPMPA isomers as GABAC receptor antagonists (subtype not stated), as for ACPBPA; type: cell-based; set-up: expressed in transfected cells; details: for Kb: read-out: KB as GABAC receptor antagonist
T4 sequence (P24046 22-479): as above

[9] = system: GABAA receptors; experiment: Activity of ACPMPA isomers at GABAA receptors (subtype not stated), as for ACPBPA; type: cell-based; details: for reduction of the current produced by GABA (10 μM): 300 μM compound
[10] = molecular target: GABAC receptors; details: Woodward et al, 1993; read-out: KB as antagonist at GABAC receptors; cited from earlier work
[11] = system: GABAA receptors; details: TPMPA 300 μM; cited from earlier work
[12] = molecular target: T4, GABAC receptor; details: cited from earlier work
[13] = system: GABAB receptor; details: dose of 500 μM; cited from earlier work

## CCCCP(=O)(O)[C@H]1CC[C@@H](N)C1 (racemic) [(±)-cis-3-ACPBPA, (±)-cis-(3-aminocyclopentanyl)butylphosphinic acid]
[1]
  Kb: > 300 µM
  effect as agonist or antagonist: did not act as an agonist or antagonist; also recorded: no apparent effect as an agonist or antagonist; also recorded: no effect as agonists or antagonists; also recorded: No effect
  current response to compound in the presence of GABA: 405 nA
  response to compound alone: no response was detected
[2]
  effect as agonist or antagonist: did not act as an agonist or antagonist; also recorded: no effect as an agonist or antagonist; also recorded: no effect as an agonist or an antagonist; also recorded: No effect
  current response to compound in the presence of GABA: 65 nA
  response to compound alone: no response was detected
[3]
  Kb: > 1000 µM
  effect as agonists or antagonists: no effect as agonists or antagonists
  inhibition at 1000 µM: 10%
[4]
  Kb: > 300 µM
  effect as agonist or antagonist: did not act as an agonist or antagonist; also recorded: no apparent effect as an agonist or antagonist; also recorded: no effect as agonists or antagonists; also recorded: No effect
  current response to compound in the presence of GABA: 20 nA
  response to compound alone: no response was detected
[5]
  antagonist activity in words: potent antagonists
  current response to compound in the presence of GABA: 4 nA
  response to compound alone: no detectable response
  inhibition at 100 µM: ~100%
[6]
  antagonist activity in words: potent antagonists
  inhibition at 100 µM: 85%
[6]; FIG. 11(c)
  current response to compound in the presence of GABA: 120 nA
  response to compound alone: no measurable response
[7]
  Kb: 12.5 ± 1.2 µM
  antagonist activity in words: potent antagonists
  current response to compound in the presence of GABA: 2 nA
  response to compound alone: no recordable response
  Hill coefficient (nH) for GABA in the presence of the antagonist: 2.3±0.2
  I/Imax, maximal GABA response maintained in the presence of the antagonist: 0.91±0.02
  type of antagonism: competitive antagonists
  inhibition at 100 µM: ~100%
[7]; ratio of estimated KB values
  potency relative to (±)-trans-3-ACPBPA: 3.5 times

## (±)-cis-(3-Aminocyclopentanyl)methylphosphinic acid [(±)-cis-3-ACPMPA]
[8]
  selectivity for GABAC than GABAA receptors: more than 100 times
  selectivity for GABAC than GABAB receptors: 50 times
  times more potent than (±)-cis-3-ACPBPA at the GABAC receptors: 12 times
  times more potent than TPMPA: 2 times
  Kb: 1 µM
[3]
  GABAB agonist activity in words: moderately potent GABAB receptor agonists
  EC50: 50 µM
[9]
  GABAA antagonist activity in words: very weak activity as antagonists
  reduction of the current produced by GABA (10 μM): 8%

## NCCC[PH](=O)O [CGP27492, 3-aminopropylphosphinic acid]
[10]
  Kb: 0.8 µM

## CP(=O)(O)CCCN [CGP35024, (3-aminopropyl)methylphosphinc acid]
[10]
  Kb: 0.8 µM

## CCCCP(=O)(O)[C@@H]1CC[C@@H](N)C1 (racemic) [(±)-trans-3-ACPBPA, (±)-trans-(3-aminocyclopentanyl)butylphosphinic acid]
[1]
  Kb: > 300 µM
  effect as agonist or antagonist: did not act as an agonist or antagonist; also recorded: no apparent effect as an agonist or antagonist; also recorded: no effect as agonists or antagonists; also recorded: No effect
  current response to compound in the presence of GABA: 407 nA
  response to compound alone: no detectable response
[2]
  effect as agonist or antagonist: did not act as an agonist or antagonist; also recorded: no effect as an agonist or antagonist; also recorded: no effect as an agonist or an antagonist; also recorded: No effect
  current response to compound in the presence of GABA: 60 nA
  response to compound alone: no detectable response
[3]
  Kb: > 1000 µM
  effect as agonists or antagonists: no effect as agonists or antagonists
  inhibition at 1000 µM: 10%
[4]
  Kb: > 300 µM
  effect as agonist or antagonist: did not act as an agonist or antagonist; also recorded: no apparent effect as an agonist or antagonist; also recorded: no effect as agonists or antagonists; also recorded: No effect
  current response to compound in the presence of GABA: 15 nA
  response to compound alone: no detectable response
[5]
  antagonist activity in words: potent antagonists
  current response to compound in the presence of GABA: 17 nA
  response to compound alone: no measurable response
  inhibition at 100 µM: 32%
[6]
  antagonist activity in words: potent antagonists
  inhibition at 100 µM: 45%
[6]; FIG. 11(c)
  current response to compound in the presence of GABA: 455 nA
  response to compound alone: no visible response
[7]
  Kb: 43.8 ± 5.1 µM
  antagonist activity in words: potent antagonists
  current response to compound in the presence of GABA: 34 nA
  response to compound alone: no detectable response
  Hill coefficient (nH) for GABA in the presence of the antagonist: 2.2±0.2
  I/Imax, maximal GABA response maintained in the presence of the antagonist: 0.94±0.05
  type of antagonism: competitive antagonists
  inhibition at 100 µM: 77%

## NCCCC(=O)O [GABA, γ-Aminobutyric acid, reference compound]
[2]; GABA 3 μM
  current response to GABA alone: 65 nA
[2]; GABA 300 μM
  current response to GABA alone: 1180 nA
[5]; GABA 1 μM
  current response to GABA alone: 23 nA
[5]; GABA 100 μM
  current response to GABA alone: 35 nA
[6]; GABA 10 μM, FIG. 11(c)
  current response to GABA alone: 880 nA
[7]; GABA 1 μM
  current response to GABA alone: 105 nA
[7]; GABA 10 μM
  current response to GABA alone: 142 nA
[7]; GABA dose-response curve
  Hill coefficient (nH) for GABA alone: 1.9±0.3

## CP(=O)(O)C1=CCNCC1 [TPMPA]
[11]
  reduction of the current produced by GABA (10 μM): 67%
[12]
  selectivity for GABAC than GABAA receptors: 100 times
  selectivity for GABAC than GABAB receptors: 500 times
[13]
  activation of the GABAB receptor: about 30%

## (±)-trans-(3-Aminocyclopentanyl)methylphosphinic acid [(±)-trans-3-ACPMPA]
[8]
  selectivity for GABAC than GABAA receptors: 45 times
  selectivity for GABAC than GABAB receptors: 24 times
  times less potent than TPMPA: 3 times
  Kb: 6.6 µM
[3]
  GABAB agonist activity in words: moderately potent GABAB receptor agonists
  EC50: 160 µM
[9]
  GABAA antagonist activity in words: very weak activity as antagonists
  reduction of the current produced by GABA (10 μM): 11%

## NCCCP(=O)(O)O [3-APA, 3-aminopropylphosphonic acid]
[10]
  Kb: 1.8 µM
